# Patent US6630500B2, “Selected fused pyrrolocarbazoles” (Cephalon, Inc., priority 2000, dated 2003)
# What was measured:
# Type in all cases: biochemical
# [1] = biological target: T1, VEGF receptor (human flk-1, KDR, VEGFR2) kinase domain (Homo sapiens, UniProt P35968); experiment: Inhibition of VEGF receptor kinase activity (ELISA); details: 40 μM ATP; for IC50: values without % sign
# T1 construct: VEGF receptor (human flk-1, KDR, VEGFR2) kinase domain; made in house
# Description: Fused pyrrolocarbazole compounds were examined for their inhibitory effects on the kinase activity of baculovirus-expressed VEGF receptor (human flk-1, KDR, VEGFR2) kinase domain using the procedure described for the trkA kinase ELISA assay described below. The kinase reaction mixture, consisting of 50 mM Hepes, pH 7.4, 40 μM ATP, 10 mM MnCl2, 0.1% BSA, 2% DMSO, and various concentrations of inhibitor, was transferred to PLC-γ/GST-coated plates. VEGFR kinase was added and the reaction was allowed to proceed for 15 min. at 37° C. Detection of phosphorylated product was accomplished by addition of anti-phosphotyrosine antibody (UBI). A secondary enzyme-conjugated antibody was delivered to capture the antibody-phosphorylated PLC-γ/GST complex. The activity of the bound enzyme was measured via an amplified detection system (Gibco-BRL). Inhibition data were analyzed using the sigmoidal dose-response (variable slope) equation in GraphPad Prism.
# Selected isomeric fused pyrrolocarbazole and isoindolone compounds can be tested for their ability to inhibit the kinase activity of baculovirus-expressed human trkA cytoplasmic domain using an ELISA-based assay as previously described (Angeles et al., Anal. Biochem. 236: 49-55, 1996). Briefly, the 96-well microtiter plate is coated with substrate solution (recombinant human phospholipase C-γl/glutathione S-transferase fusion protein (Rotin et al., EMBO J., 11: 559-567, 1992). Inhibition studies are performed in 100 μl assay mixtures containing 50 mM Hepes, pH 7.4, 40 μM ATP, 10 mM MnCl2, 0.1% BSA, 2% DMSO, and various concentrations of inhibitor. The reaction is initiated by addition of trkA kinase and allowed to proceed for 15 minutes at 37° C. An antibody to phosphotyrosine (UBI) is then added, followed by a secondary enzyme-conjugated antibody, alkaline phosphatase-labelled goat anti-mouse IgG (Bio-Rad). The activity of the bound enzyme is measured via an amplified detection system (Gibco-BRL). Inhibition data are analyzed using the sigmoidal dose-response (variable slope) equation in GraphPad Prism.
# [2] = biological target: T2, MLK1 (Homo sapiens, UniProt P80192); experiment: Inhibition of Mixed Lineage Kinase-1 (MLK1) activity; details: 60 μM ATP; for IC50: values without % sign
# T2 construct: 1 μg/ml of baculoviral GST-MLK1KD; GST (N); made in house
# Description: The kinase activity of MLK1 was assessed using the Millipore Multiscreen TCA “in-plate” format as described for protein kinase C (Pitt & Lee, J. Biomol. Screening, 1: 47-51, 1996). Briefly, each 50-μl assay mixture contained 20 mM Hepes, pH 7.2, 5 mM EGTA, 15 mM MgCl2, 25 mM β-glycerophosphate, 60 μM ATP, 0.25 μCi [γ-^32P]ATP, 0.1% BSA, 500 μ/ml myelin basic protein (UBI #13-104), 2% DMSO, […], and 1 μg/ml of baculoviral GST-MLK1KD. Samples were incubated for 15 min at 37° C. The reaction was stopped by adding ice cold 50% TCA and the proteins were allowed to precipitate for 30 min at 4° C. The plates were then washed with ice cold 25% TCA. Supermix scintillation cocktail was added, and the plates were allowed to equilibrate for 1-2 hours prior to counting using the Wallac MicroBeta 1450 PLUS scintillation counter.
# [3] = biological target: T3, MLK3 (Homo sapiens, UniProt Q16584); experiment: Inhibition of Mixed Lineage Kinase-3 (MLK3) activity; details: 100 μM ATP; for IC50: values without % sign
# T3 construct: 2 μg/ml of baculoviral GST-MLK3KD; GST (N); made in house
# Description: (§1) The kinase activity of MLK1 was assessed using the Millipore Multiscreen TCA “in-plate” format as described for protein kinase C (Pitt & Lee, J. Biomol. Screening, 1: 47-51, 1996). Briefly, each 50-μl assay mixture contained 20 mM Hepes, pH 7.2, 5 mM EGTA, 15 mM MgCl2, 25 mM β-glycerophosphate, 60 μM ATP, 0.25 μCi [γ-^32P]ATP, 0.1% BSA, 500 μ/ml myelin basic protein (UBI #13-104), 2% DMSO, 1 μM of test compound, and 1 μg/ml of baculoviral GST-MLK1KD. Samples were incubated for 15 min at 37° C. The reaction was stopped by adding ice cold 50% TCA and the proteins were allowed to precipitate for 30 min at 4° C. The plates were then washed with ice cold 25% TCA. Supermix scintillation cocktail was added, and the plates were allowed to equilibrate for 1-2 hours prior to counting using the Wallac MicroBeta 1450 PLUS scintillation counter.
# (§2) Assays were performed using the Millipore Multiscreen plate format as described for MLK1. Briefly, each 50-μl assay mixture contained 20 mM Hepes, pH 7.2, 5 mM EGTA, 15 mM MgCl2, 25 mM β-glycerophosphate, 100 μM ATP, 0.25 μCi [γ-^32P]ATP, 0.1% BSA, 500 μg/ml myelin basic protein (UBI #13-104), 2% DMSO, various concentrations of test compound, and 2 μg/ml of baculoviral GST-MLK3KD. Sample were incubated for 15 min at 37° C. The reaction was stopped by adding ice cold 50% TCA and the proteins were allowed to precipitate for 30 min at 4° C. The plates were then washed with ice cold 25% TCA. Supermix scintillation cocktail was added, and the plates were allowed to equilibrate for 1-2 hours prior to counting.
# [4] = biological target: T4, MLK2 (Homo sapiens, UniProt Q02779); experiment: Inhibition of Mixed Lineage Kinase-2 (MLK2) activity; details: 100 μM ATP; for inhibition at 0.1 µM: 100 nM compound; for IC50: values without % sign
# T4 construct: fused on or other part: GST tag
# Description: as §1
# as §2, with “MLK1. Each” for “MLK1. Briefly, each”, “and 3” for “and 2”, “baculoviral GST-MLK2KDLZ. Samples” for “baculoviral GST-MLK3KD. Sample”, “15 min.” for “15 min”
# T1 sequence (P35968 834-1162 limits assumed): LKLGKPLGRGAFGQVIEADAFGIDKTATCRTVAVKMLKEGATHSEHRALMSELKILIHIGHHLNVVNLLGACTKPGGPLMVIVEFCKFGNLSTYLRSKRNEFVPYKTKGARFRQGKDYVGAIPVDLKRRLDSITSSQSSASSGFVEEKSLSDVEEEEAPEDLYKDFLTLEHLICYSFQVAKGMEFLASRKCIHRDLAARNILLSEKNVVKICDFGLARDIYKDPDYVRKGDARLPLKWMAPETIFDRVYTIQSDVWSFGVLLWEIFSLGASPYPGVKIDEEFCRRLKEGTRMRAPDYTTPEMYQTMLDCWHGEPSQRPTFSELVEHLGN
# T4 sequence (Q02779 98-440 limits assumed): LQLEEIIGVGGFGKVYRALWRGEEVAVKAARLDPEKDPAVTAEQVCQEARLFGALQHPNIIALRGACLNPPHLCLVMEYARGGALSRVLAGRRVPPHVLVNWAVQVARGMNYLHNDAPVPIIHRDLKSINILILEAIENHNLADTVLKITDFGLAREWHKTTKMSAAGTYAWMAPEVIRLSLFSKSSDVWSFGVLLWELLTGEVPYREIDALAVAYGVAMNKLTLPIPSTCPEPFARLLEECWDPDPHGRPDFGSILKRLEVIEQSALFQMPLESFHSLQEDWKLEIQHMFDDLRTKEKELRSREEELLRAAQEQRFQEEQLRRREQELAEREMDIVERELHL
# T2 sequence (P80192 144-412 limits assumed, species assumed): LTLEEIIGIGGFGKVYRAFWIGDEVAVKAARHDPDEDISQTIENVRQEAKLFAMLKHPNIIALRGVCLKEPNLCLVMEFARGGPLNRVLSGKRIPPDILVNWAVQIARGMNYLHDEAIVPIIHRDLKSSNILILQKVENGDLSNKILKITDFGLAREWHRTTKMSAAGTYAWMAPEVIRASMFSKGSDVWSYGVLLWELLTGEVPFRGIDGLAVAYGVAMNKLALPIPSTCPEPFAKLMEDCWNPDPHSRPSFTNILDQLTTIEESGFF
# T3 sequence (Q16584 117-379 limits assumed, species assumed): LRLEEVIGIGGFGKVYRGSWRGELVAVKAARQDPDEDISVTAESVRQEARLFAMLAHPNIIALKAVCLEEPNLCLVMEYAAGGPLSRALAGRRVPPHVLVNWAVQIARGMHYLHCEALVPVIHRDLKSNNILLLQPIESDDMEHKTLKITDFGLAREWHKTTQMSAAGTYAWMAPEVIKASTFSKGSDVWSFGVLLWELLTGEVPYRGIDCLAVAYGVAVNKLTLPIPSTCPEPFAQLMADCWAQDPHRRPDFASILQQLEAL
SMILES,"inhibition at 0.3 µM ([1]; 300 nM compound, read-out: VEGFR2 % inh. @ 300 nM) [%]",inhibition at 0.1 µM ([2]; 100 nM compound) [%],inhibition at 0.1 µM ([3]; 100 nM compound) [%],inhibition at 0.1 µM [4] [%],IC50 [1] [nM],IC50 [2] [nM],IC50 [3] [nM],IC50 [4] [nM]
"CC(C)CC(N)C(=O)OCCCn1c2ccccc2c2c3c(c4c(c21)Cc1ccccc1-4)C(=O)NC3 (centres unmarked) [C, reference compound]",17,8,30,0,–,–,–,–
O=C1NCc2c1c1c(c3c2c2cc(CO)ccc2n3CCCO)Cc2ccccc2-1 [Compound 29],–,–,–,64,208,9,5,–
CC[C@@H](C)OCc1ccc2c(c1)c1c3c(c4c(c1n2CCCO)Cc1ccccc1-4)C(=O)NC3 [Compound 5],–,–,–,45,12,27,16,–
COC(C)c1ccc2c(c1)c1c3c(c4c(c1n2CCCO)Cc1ccccc1-4)C(=O)NC3 (centres unmarked) [Compound 13],–,–,–,62,73,20,26,–
CC(C)OCc1ccc2c(c1)c1c3c(c4c(c1n2CCCOC(=O)CN(C)C)Cc1ccccc1-4)C(=O)NC3 [Compound 22],–,–,–,–,18,74,28,170
"CCOC(C)c1ccc2c(c1)c1c3c(c4c(c1n2CCCO)Cc1ccccc1-4)C(=O)NC3 (single isomer, unassigned) [Compound 12]",–,–,–,–,240,28,16,131
"O=C1NCc2c1c1c(c3c2c2ccccc2n3CCO)Cc2ccccc2-1 [A, reference compound]",–,–,–,39,107,22,8,–
"O=C1NCc2c1c1c(c3c2c2ccccc2n3CCCO)Cc2ccccc2-1 [Compound B, reference compound]",–,–,–,46,48,31,17,–
CC(C)(C)OCc1ccc2c(c1)c1c3c(c4c(c1n2CCCO)Cc1ccccc1-4)C(=O)NC3 [Compound 17],–,–,–,50,11,35,–,–
CC[C@H](C)OCc1ccc2c(c1)c1c3c(c4c(c1n2CCCO)Cc1ccccc1-4)C(=O)NC3 [Compound 6],–,–,–,51,19,38,19,–
CCCOCc1ccc2c(c1)c1c3c(c4c(c1n2CCCO)Cc1ccccc1-4)C(=O)NC3 [Compound 8],–,–,–,76,13,19,13,–
CC(C)OCc1ccc2c(c1)c1c3c(c4c(c1n2CCCOC(=O)CCN)Cc1ccccc1-4)C(=O)NC3 [Compound 20],–,–,–,–,31,42,32,229
